Converted amounts (≈) assume the structure as drawn.
Experiments:
Assay in all cases: In vitro antibacterial evaluation: minimum inhibitory concentration (MIC), broth dilution method
Format in all cases: cell-based
Enterococcus sp. = details: 18 hours at 35° C.
Method in brief: (§1)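 Using Muller-Hinton II […] and an inoculum of 5×10^5 CFU/mL, antibiotic dilutions from 64 down to 0.06 μg/mL were tested following NCCLS M7-A2. The MIC is the lowest concentration inhibiting growth, including in methicillin-, penicillin- or vancomycin-resistant clinical isolates.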

Escherichia coli = details: 18 hours at 35° C.
Method in brief: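 Test strains, among them recent clinical isolates carrying methicillin, penicillin and/or vancomycin resistance, were inoculated at 5×10^5 CFU/mL. A broth dilution series spanning 64-0.06 μg/mL in Muller-Hinton II […] (NCCLS M7-A2) defined the MIC as the lowest growth-inhibiting concentration.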

Staphylococcus sp. = system: Staphylococcus sp.
Method in brief: as §1

Streptococcus sp. = details: 18 hours at 35° C.
Method in brief: as §1

[1] = broth dilution, inoculum 5×10^5 CFU/mL

## CC(c1ccccc1)C1NC(=O)CNC(=O)C(CO)NC(=O)C(C(O)C2CNC(=N)N2C2OC(CO)C(O)C(O)C2O)NC(=O)C(C(O)C2CNC(=N)N2)NC(=O)C(Cc2ccc(OC3OC(CO)C(OC4OC5COC(c6cccc(Oc7cccc(C(F)(F)F)c7)c6)OC5C(O)C4O)C(O)C3O)cc2)NC1=O (stereo not shown) [Example 184]
Enterococcus sp.; Enterococcus avium (GC 4558)
  MIC Enterococcus avium (GC 4558): 32 µg/mL (≈ 20.7 µM)
Enterococcus sp.; Enterococcus faecalis (ATCC 29212)
  MIC Enterococcus faecalis (ATCC 29212): 32 µg/mL (≈ 20.7 µM)
Enterococcus sp.; Enterococcus faecalis (GC 2242)
  MIC Enterococcus faecalis (GC 2242): 32 µg/mL (≈ 20.7 µM)
Enterococcus sp.; Enterococcus faecalis (GC 2691)
  MIC Enterococcus faecalis (GC 2691): 32 µg/mL (≈ 20.7 µM)
Enterococcus sp.; Enterococcus faecalis (GC 3059)
  MIC Enterococcus faecalis (GC 3059): 32 µg/mL (≈ 20.7 µM)
Enterococcus sp.; Enterococcus faecalis (GC 4552)
  MIC Enterococcus faecalis (GC 4552): 32 µg/mL (≈ 20.7 µM)
Enterococcus sp.; Enterococcus faecalis (GC 4553)
  MIC Enterococcus faecalis (GC 4553): 16 µg/mL (≈ 10.4 µM)
Enterococcus sp.; Enterococcus faecalis (GC 4554)
  MIC Enterococcus faecalis (GC 4554): 32 µg/mL (≈ 20.7 µM)
Enterococcus sp.; Enterococcus faecalis (GC 6189)
  MIC Enterococcus faecalis (GC 6189): 32 µg/mL (≈ 20.7 µM)
Enterococcus sp.; Enterococcus faecium (GC 2243)
  MIC Enterococcus faecium (GC 2243): 16 µg/mL (≈ 10.4 µM)
Enterococcus sp.; Enterococcus faecium (GC 4556)
  MIC Enterococcus faecium (GC 4556): 32 µg/mL (≈ 20.7 µM)
Enterococcus sp.; Enterococcus faecium (GC 4557)
  MIC Enterococcus faecium (GC 4557): 32 µg/mL (≈ 20.7 µM)
Enterococcus sp.; [1]
  MIC Enterococcus avium (GC 4558): 32 µg/mL (≈ 20.7 µM)
  MIC Enterococcus faecalis (ATCC 29212): 32 µg/mL (≈ 20.7 µM)
  MIC Enterococcus faecalis (GC 2242): 32 µg/mL (≈ 20.7 µM)
  MIC Enterococcus faecalis (GC 2691): 32 µg/mL (≈ 20.7 µM)
  MIC Enterococcus faecalis (GC 3059): 32 µg/mL (≈ 20.7 µM)
  MIC Enterococcus faecalis (GC 4552): 32 µg/mL (≈ 20.7 µM)
  MIC Enterococcus faecalis (GC 4553): 16 µg/mL (≈ 10.4 µM)
  MIC Enterococcus faecalis (GC 4554): 32 µg/mL (≈ 20.7 µM)
  MIC Enterococcus faecalis (GC 6189): 32 µg/mL (≈ 20.7 µM)
  MIC Enterococcus faecium (GC 2243): 16 µg/mL (≈ 10.4 µM)
  MIC Enterococcus faecium (GC 4556): 32 µg/mL (≈ 20.7 µM)
  MIC Enterococcus faecium (GC 4557): 32 µg/mL (≈ 20.7 µM)
Escherichia coli; Escherichia coli (ATCC 25922)
  MIC Escherichia coli (ATCC 25922): >64 µg/mL
Escherichia coli; Escherichia coli (GC 4559)
  MIC Escherichia coli (GC 4559): >64 µg/mL
Escherichia coli; Escherichia coli (GC 4560)
  MIC Escherichia coli (GC 4560): 32 µg/mL (≈ 20.7 µM)
Staphylococcus sp.; strain ATCC 29213
  MIC Staphylococcus aureus (ATCC 29213): 32 µg/mL (≈ 20.7 µM)
Staphylococcus sp.; strain GC 1131
  MIC Staphylococcus aureus (GC 1131): 32 µg/mL (≈ 20.7 µM)
Staphylococcus sp.; strain GC 3051
  MIC Staphylococcus aureus (GC 3051): 32 µg/mL (≈ 20.7 µM)
Staphylococcus sp.; strain GC 3053
  MIC Staphylococcus aureus (GC 3053): 32 µg/mL (≈ 20.7 µM)
Staphylococcus sp.; strain GC 4541
  MIC Staphylococcus aureus (GC 4541): 32 µg/mL (≈ 20.7 µM)
Staphylococcus sp.; strain GC 4542
  MIC Staphylococcus aureus (GC 4542): 32 µg/mL (≈ 20.7 µM)
Staphylococcus sp.; strain GC 4543
  MIC Staphylococcus aureus-SMITH (GC 4543): 32 µg/mL (≈ 20.7 µM)
Staphylococcus sp.; strain GC 4544
  MIC Staphylococcus aureus (GC 4544): 32 µg/mL (≈ 20.7 µM)
Staphylococcus sp.; strain GC 4545
  MIC Staphylococcus aureus (GC 4545): 32 µg/mL (≈ 20.7 µM)
Staphylococcus sp.; strain GC 4546
  MIC Staphylococcus haemolyticus (GC 4546): 32 µg/mL (≈ 20.7 µM)
Staphylococcus sp.; strain GC 4547
  MIC Coagulase Negative Staphylococcus (GC 4547): 32 µg/mL (≈ 20.7 µM)
Staphylococcus sp.; strain GC 4548
  MIC Coagulase Negative Staphylococcus (GC 4548): 16 µg/mL (≈ 10.4 µM)
Staphylococcus sp.; strain GC 4549
  MIC Coagulase Negative Staphylococcus (GC 4549): 32 µg/mL (≈ 20.7 µM)
Staphylococcus sp.; strain GC 4551
  MIC Coagulase Negative Staphylococcus (GC 4551): 32 µg/mL (≈ 20.7 µM)
Staphylococcus sp.; strain GC 6257
  MIC Coagulase Negative Staphylococcus (GC 6257): 16 µg/mL (≈ 10.4 µM)
Streptococcus sp.; Streptococcus agalactiae (GC 4564)
  MIC Streptococcus agalactiae (GC 4564): 0.12 µg/mL (≈ 0.0777 µM)
Streptococcus sp.; Streptococcus pneumoniae (ATCC 6301)
  MIC Streptococcus pneumoniae (ATCC 6301): <0.06 µg/mL
Streptococcus sp.; Streptococcus pneumoniae (GC 1894)
  MIC Streptococcus pneumoniae (GC 1894): <0.06 µg/mL
Streptococcus sp.; Streptococcus pneumoniae (GC 4565)
  MIC Streptococcus pneumoniae (GC 4565): <0.06 µg/mL
Streptococcus sp.; Streptococcus pyogenes (GC 4563)
  MIC Streptococcus pyogenes (GC 4563): 0.25 µg/mL (≈ 0.162 µM)
Streptococcus sp.; [1]
  MIC Streptococcus agalactiae (GC 4564): 0.12 µg/mL (≈ 0.0777 µM)
  MIC Streptococcus pneumoniae (ATCC 6301): <0.06 µg/mL
  MIC Streptococcus pneumoniae (GC 1894): <0.06 µg/mL
  MIC Streptococcus pneumoniae (GC 4565): <0.06 µg/mL
  MIC Streptococcus pyogenes (GC 4563): 0.25 µg/mL (≈ 0.162 µM)
